Legend:
[1] = Molar enthalpy of transition or fusion; details: Crystal; DSC
[2] = molar heat capacity at constant pressure; details: 101.33 kPa, Small sample (50 mg) DSC
[3] = Crystal; DTA

C(=C\c1ccccc1)/CN1CCN(C(c2ccccc2)c2ccccc2)CC1 [cinnarizine]
Details | Molar enthalpy of transition or fusion [kcal/mol] | Normal melting temperature [°C]
[1] | 8.87 | –
[3] | – | 120.83

[2]
Details | molar heat capacity at constant pressure [J/K/mol]
305 K, Crystal | 307.19
310 K, Crystal | 314.6
315 K, Crystal | 322.02
320 K, Crystal | 329.43
325 K, Crystal | 336.84
330 K, Crystal | 344.26
335 K, Crystal | 351.67
340 K, Crystal | 359.09
345 K, Crystal | 366.5
350 K, Crystal | 373.91
355 K, Crystal | 381.33
360 K, Crystal | 388.74
365 K, Crystal | 396.15
370 K, Crystal | 403.57
375 K, Crystal | 410.98
380 K, Crystal | 418.4
385 K, Crystal | 425.81
400 K, Liquid | 558.85
405 K, Liquid | 563.97
410 K, Liquid | 569.09
415 K, Liquid | 574.21
